In US20260347347A1, “2-AZA-AND 2-OXABICYCLO[2.1.1]HEXANE DERIVATIVES AS FACTOR XIIA ENZYME INHIBITORS” (KALVISTA PHARMACEUTICALS LIMITED, priority 2022, published 2026):

These molecules were tested against T1, Human Factor XIIa (Homo sapiens, UniProt P00748) (assay: Determination of FXIIa inhibition (in vitro IC50 assay, fluorogenic substrate H-DPro-Phe-Arg-AFC)). Conditions: human Factor XIIa; fluorogenic substrate H-DPro-Phe-Arg-AFC at Km concentration; 5 min, 25 °C; class symbols H1/H2 for % inhibition at top concentration.
T1 construct: purchased Enzyme Research Laboratories
T1 sequence (P00748 373-615 limits assumed): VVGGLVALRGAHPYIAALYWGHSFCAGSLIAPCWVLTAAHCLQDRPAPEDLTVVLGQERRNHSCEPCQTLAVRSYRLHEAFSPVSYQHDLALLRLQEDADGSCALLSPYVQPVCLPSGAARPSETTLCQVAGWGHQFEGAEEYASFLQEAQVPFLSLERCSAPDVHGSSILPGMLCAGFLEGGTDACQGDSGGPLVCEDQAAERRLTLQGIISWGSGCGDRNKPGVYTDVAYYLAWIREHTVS
T1 sequence (P00748 20-372 partner limits assumed): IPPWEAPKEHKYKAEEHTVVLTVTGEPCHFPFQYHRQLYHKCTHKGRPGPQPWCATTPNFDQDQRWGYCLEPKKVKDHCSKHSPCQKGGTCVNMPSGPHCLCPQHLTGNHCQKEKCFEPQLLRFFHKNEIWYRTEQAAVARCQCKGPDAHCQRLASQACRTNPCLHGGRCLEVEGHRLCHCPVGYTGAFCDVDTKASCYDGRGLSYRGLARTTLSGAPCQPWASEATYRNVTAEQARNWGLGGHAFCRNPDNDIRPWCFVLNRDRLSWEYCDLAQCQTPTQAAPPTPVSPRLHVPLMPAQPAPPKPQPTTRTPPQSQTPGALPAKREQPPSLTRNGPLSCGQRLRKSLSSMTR
Type: biochemical
Experimental: In vitro inhibition of Factor XIIa was determined using an IC50 assay based on standard literature methods (see e.g Baeriswyl et al., ACS Chem. Biol., 2015, 10 (8) 1861; Bouckaert et al., European Journal of Medicinal Chemistry 110 (2016) 181). Human Factor XIIa (Enzyme Research Laboratories) was incubated at 25 °C with the fluorogenic substrate H-DPro-Phe-Arg-AFC (Peptide Protein Science) and various concentrations of the test compound. Protease activity was measured by monitoring the accumulation of liberated fluorescence from the substrate over 5 min at 25 °C. The linear rate of fluorescence increase per minute was expressed as percentage (%) activity. The Km for the cleavage of the substrate by FXIIa was determined by standard transformation of the Michaelis-Menten equation. The compound inhibitor assays were performed at substrate Km concentration. IC50 values were calculated as the concentration of inhibitor giving 50% inhibition (IC50) of the uninhibited enzyme activity (100%).

Row | Compound | Human FXIIa inhibition (compounds that did not achieve 50% inhibition)
1 | Cc1cc(OCC23CN(C(=O)NC4(c5ccccc5)CC4)C(CNc4cccnc4)(C2)C3)cc(=O)n1C [Example 55, 4-(((1,6-dimethyl-2-oxo-1,2-dihydropyridin-4-yl)oxy)methyl)-N-(1-phenylcyclopropyl)-1-((pyridin-3-ylamino)methyl)-2-azabicyclo[2.1.1]hexane-2-carboxamide] | H2 (>20% inhibition @ 100 μM)

Same assay, conditions: human Factor XIIa; fluorogenic substrate H-DPro-Phe-Arg-AFC at Km concentration; 5 min, 25 °C; class symbols; read-out: Human FXIIa IC50

Row | Compound | IC50
2 | Cc1cc(OCC23CN(C(=O)N4CC5(CCOCC5)C4)C(CNc4cccc5c(N)nccc45)(C2)C3)cc(=O)n1C [Example 46, 4-((1-(((1-aminoisoquinolin-5-yl)amino)methyl)-2-(7-oxa-2-azaspiro[3.5]nonane-2-carbonyl)-2-azabicyclo[2.1.1]hexan-4-yl)methoxy)-1,6-dimethylpyridin-2(1H)-one] | 10 to 100 nM
3 | Cc1cc(OCC23CN(C(=O)N(C)C[C@@H]4CCOC4)C(CNc4cccc5c(N)nccc45)(C2)C3)cc(=O)n1C [Example 47, (S)-1-(((1-aminoisoquinolin-5-yl)amino)methyl)-4-(((1,6-dimethyl-2-oxo-1,2-dihydropyridin-4-yl)oxy)methyl)-N-methyl-N-((tetrahydrofuran-3-yl)methyl)-2-azabicyclo[2.1.1]hexane-2-carboxamide] | 10 to 100 nM
4 | Cc1cc(OCC23CN(C(=O)N(C)C[C@H]4CCOC4)C(CNc4cccc5c(N)nccc45)(C2)C3)cc(=O)n1C [Example 48, (R)-1-(((1-aminoisoquinolin-5-yl)amino)methyl)-4-(((1,6-dimethyl-2-oxo-1,2-dihydropyridin-4-yl)oxy)methyl)-N-methyl-N-((tetrahydrofuran-3-yl)methyl)-2-azabicyclo[2.1.1]hexane-2-carboxamide] | 10 to 100 nM
5 | Cc1cc(OCC23CN(C(=O)N4CC[C@H](c5ccccc5)C4)C(CNc4cccc5c(N)nccc45)(C2)C3)cc(=O)n1C [Example 49, (R)-4-((1-(((1-aminoisoquinolin-5-yl)amino)methyl)-2-(3-phenylpyrrolidine-1-carbonyl)-2-azabicyclo[2.1.1]hexan-4-yl)methoxy)-1,6-dimethylpyridin-2(1H)-one] | 10 to 100 nM
6 | Cn1ccc(OCC23CN(C(=O)N4Cc5ccccc5C4)C(CNc4cccc5c(N)nccc45)(C2)C3)cc1=O [Example 50, 4-((1-(((1-aminoisoquinolin-5-yl)amino)methyl)-2-(isoindoline-2-carbonyl)-2-azabicyclo[2.1.1]hexan-4-yl)methoxy)-1-methylpyridin-2(1H)-one] | 10 to 100 nM
7 | Cn1ccc(OCC23CN(C(=O)N4CC5(CCC5)C4)C(CNc4cccc5c(N)nccc45)(C2)C3)cc1=O [Example 51, 4-((1-(((1-aminoisoquinolin-5-yl)amino)methyl)-2-(2-azaspiro[3.3]heptane-2-carbonyl)-2-azabicyclo[2.1.1]hexan-4-yl)methoxy)-1-methylpyridin-2(1H)-one] | 10 to 100 nM
8 | Cn1ccc(OCC23CN(C(=O)Nc4ccc5c(c4)CCCO5)C(CNc4cccc5c(N)nccc45)(C2)C3)cc1=O [Example 52, 1-(((1-aminoisoquinolin-5-yl)amino)methyl)-N-(chroman-6-yl)-4-(((1-methyl-2-oxo-1,2-dihydropyridin-4-yl)oxy)methyl)-2-azabicyclo[2.1.1]hexane-2-carboxamide] | 0.1 to 1 nM
9 | CN(CC1CC1)C(=O)N1CC2(COc3ccn(C)c(=O)c3)CC1(CNc1cccc3c(N)nccc13)C2 [Example 53, 1-(((1-aminoisoquinolin-5-yl)amino)methyl)-N-(cyclopropylmethyl)-N-methyl-4-(((1-methyl-2-oxo-1,2-dihydropyridin-4-yl)oxy)methyl)-2-azabicyclo[2.1.1]hexane-2-carboxamide] | 10 to 100 nM
10 | Cn1ccc(OCC23CN(C(=O)N4CCCCC4)C(CNc4cccc5c(N)nccc45)(C2)C3)cc1=O [Example 54, 4-((1-(((1-aminoisoquinolin-5-yl)amino)methyl)-2-(piperidine-1-carbonyl)-2-azabicyclo[2.1.1]hexan-4-yl)methoxy)-1-methylpyridin-2(1H)-one] | 10 to 100 nM
11 | Cc1ncccc1NCC12CC(COc3cc(C)n(C)c(=O)c3)(CN1C(=O)NC1(c3ccccc3)CC1)C2 [Example 56, 4-(((1,6-dimethyl-2-oxo-1,2-dihydropyridin-4-yl)oxy)methyl)-1-(((2-methylpyridin-3-yl)amino)methyl)-N-(1-phenylcyclopropyl)-2-azabicyclo[2.1.1]hexane-2-carboxamide] | 40000 to 100000 nM
12 | Cc1cc(OCC23CN(C(=O)NC4(c5ccccc5)CC4)C(CNc4cccc5c(N)nccc45)(C2)C3)cc(=O)n1C [Example 57, 1-(((1-aminoisoquinolin-5-yl)amino)methyl)-4-(((1,6-dimethyl-2-oxo-1,2-dihydropyridin-4-yl)oxy)methyl)-N-(1-phenylcyclopropyl)-2-azabicyclo[2.1.1]hexane-2-carboxamide] | 1 to 10 nM
13 | Cc1cc(OCC23CN(C(=O)NC4(c5ccccc5)CC4)C(CNc4ccc(N)nc4)(C2)C3)cc(=O)n1C [Example 58, 1-(((6-aminopyridin-3-yl)amino)methyl)-4-(((1,6-dimethyl-2-oxo-1,2-dihydropyridin-4-yl)oxy)methyl)-N-(1-phenylcyclopropyl)-2-azabicyclo[2.1.1]hexane-2-carboxamide] | 10000 to 40000 nM
14 | Nc1nccc2c(NCC34CC(COc5cc6n(c(=O)c5)CCC6)(CN3C(=O)NC3(c5ccccc5)CC3)C4)cccc12 [Example 59, 1-(((1-Aminoisoquinolin-5-yl)amino)methyl)-4-(((5-oxo-1,2,3,5-tetrahydroindolizin-7-yl)oxy)methyl)-N-(1-phenylcyclopropyl)-2-azabicyclo[2.1.1]hexane-2-carboxamide] | 1 to 10 nM
15 | Cn1ccc(OCC23CN(C(=O)NC4C5CC6CC(C5)CC4C6)C(CNc4cccc5c(N)nccc45)(C2)C3)cc1=O (stereo not drawn) [Example 61, N-(adamantan-2-yl)-1-(((1-aminoisoquinolin-5-yl)amino)methyl)-4-(((1-methyl-2-oxo-1,2-dihydropyridin-4-yl)oxy)methyl)-2-azabicyclo[2.1.1]hexane-2-carboxamide] | 10 to 100 nM
16 | Cn1ccc(OCC23CN(C(=O)Nc4cc(F)cc5c4OCOC5)C(CNc4cccc5c(N)nccc45)(C2)C3)cc1=O [Example 62, 1-(((1-aminoisoquinolin-5-yl)amino)methyl)-N-(6-fluoro-4H-benzo[d][1,3]dioxin-8-yl)-4-(((1-methyl-2-oxo-1,2-dihydropyridin-4-yl)oxy)methyl)-2-azabicyclo [2.1.1]hexane-2-carboxamide] | 1 to 10 nM
17 | Cn1ccc(OCC23CN(C(N)=O)C(CNc4cccc5c(N)nccc45)(C2)C3)cc1=O [Example 63, 1-(((1-Aminoisoquinolin-5-yl)amino)methyl)-4-(((1-methyl-2-oxo-1,2-dihydropyridin-4-yl)oxy)methyl)-2-azabicyclo[2.1.1]hexane-2-carboxamide] | 10 to 100 nM
18 | Cn1ccc(OCC23CN(C(=O)NC4(c5ccccc5)CCOCC4)C(CNc4cccc5c(N)nccc45)(C2)C3)cc1=O [Example 64, 1-(((1-aminoisoquinolin-5-yl)amino)methyl)-4-(((1-methyl-2-oxo-1,2-dihydropyridin-4-yl)oxy)methyl)-N-(4-phenyltetrahydro-2H-pyran-4-yl)-2-azabicyclo[2.1.1]hexane-2-carboxamide] | 10 to 100 nM
